Measurements: patent US7572793B2, “3-Substituted-4-pyrimidone derivatives” (Mitsubishi Tanabe Pharma Corporation, priority 2001, dated 2009)

Target: T1, bovine cerebral TPK1 (Bos taurus, UniProt A0A3Q1MT31)
T1 construct: from tissue; host or cells: bovine brain (cerebrum)
Test: Inhibitory activity against P-GS1 phosphorylation by bovine cerebral TPK1
Format: biochemical
Settings: 41.7 μM [γ-32P]ATP, 25° C., 2 hours, pH 6.5
Protocol: Inhibitory Activity of the Medicament of the Present Invention Against P-GS1 Phosphorylation by Bovine Cerebral TPK1
A mixture containing 100 mM MES-sodium hydroxide (pH 6.5), 1 mM magnesium acetate, 0.5 mM EGTA, 5 mM β-mercaptoethanol, 0.02% Tween 20, 10% glycerol, 12 μg/ml P-GS1, 41.7 μM [y-^32P] ATP (68 kBq/ml), bovine cerebral TPK1 and a compound shown in Table (a final mixture contained 1.7% DMSO deriving from a solution of a test compound prepared in the presence of 10% DMSO) was used as a reaction system. The phosphorylation was started by adding ATP, and the reaction was conducted at 25° C. for 2 hours, and then stopped by adding 21% perchloric acid on ice cooling. The reaction mixture was centrifuged at 12,000 rpm for 5 minutes and adsorbed on P81 paper (Whatmann), and then the paper was washed four times with 75 mM phosphoric acid, three times with water and once with acetone. The paper was dried, and the residual radioactivity was measured using a liquid scintillation counter. […] PHF formation, and that the medicaments of the present invention are effective for preventive and/or therapeutic treatment of Alzheimer disease and the above-mentioned diseases.

T1 sequence (A0A3Q1MT31 1-419): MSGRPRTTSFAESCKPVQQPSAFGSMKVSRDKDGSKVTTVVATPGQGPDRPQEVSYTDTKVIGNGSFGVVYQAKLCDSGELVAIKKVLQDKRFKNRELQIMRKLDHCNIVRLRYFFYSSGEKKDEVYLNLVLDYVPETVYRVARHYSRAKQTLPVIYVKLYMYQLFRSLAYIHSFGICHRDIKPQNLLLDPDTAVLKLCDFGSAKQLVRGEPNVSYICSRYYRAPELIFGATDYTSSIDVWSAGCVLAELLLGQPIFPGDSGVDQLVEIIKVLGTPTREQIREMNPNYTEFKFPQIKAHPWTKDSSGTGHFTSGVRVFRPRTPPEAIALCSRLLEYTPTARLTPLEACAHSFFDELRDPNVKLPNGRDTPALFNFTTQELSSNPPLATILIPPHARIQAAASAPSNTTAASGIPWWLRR

| IC50 [nM] | Structure (SMILES) |
| --- | --- |
| 1.1 | COc1ccc(Nc2ccccc2)cc1C1CN(c2nc(-c3ccncn3)cc(=O)n2C)CCO1 (stereo not drawn) [Compound B269] |
| 4.6 | CC(C)Oc1cc(F)ccc1C1CN(c2nc(-c3ccncn3)cc(=O)n2C)CCO1 (stereo not drawn) [Compound B241] |
| 1.2 | COc1cc(-c2ccc(F)cc2)ccc1C1CN(c2nc(-c3ccncn3)cc(=O)n2C)CCO1 (stereo not drawn) [Compound B279] |
| 4.2 | Cn1c(N2CCOC(c3cc4ccccc4o3)C2)nc(-c2ccncn2)cc1=O (stereo not drawn) [Compound B271] |
| 3.5 | Cn1c(N2CCOC(c3ccc(F)cc3Cl)C2)nc(-c2ccncn2)cc1=O (stereo not drawn) [Compound B240] |
| 26 | Cn1c(N2CCOC3(CCCOc4ccccc43)C2)nc(-c2ccncn2)cc1=O (stereo not drawn) [Compound B285] |
| 7.4 | Cn1c(N2CCOC(c3ccc(F)cc3O)C2)nc(-c2ccncn2)cc1=O (stereo not drawn) [Compound B257] |
| 2.9 | COc1ccc([C@H]2CN(c3nc(-c4ccncn4)cc(=O)n3C)CCO2)cc1 [Compound B079, (S)-2-[2-(4-Methoxyphenyl)morpholin-4-yl]-3-methyl-6-pyrimidin-4-yl-3H-pyrimidin-4-one] |
| 11 | Cn1c(NCC(=O)c2cccc(Cl)c2)nc(-c2ccncn2)cc1=O [Compound A124] |
| 0.27 | Cn1c(N2CCOC(c3c(Cl)cccc3Cl)C2)nc(-c2ccncn2)cc1=O (stereo not drawn) [Compound B105] |
| 1.3 | COc1cccc(-c2ccc(OC)c(C3CN(c4nc(-c5ccncn5)cc(=O)n4C)CCO3)c2)c1 (stereo not drawn) [Compound B262] |
| 26.1 | COc1ccc(C2CN(c3nc(-c4ccncn4)cc(=O)n3C)CC(C)(C)O2)cc1 (stereo not drawn) [Compound B217] |
| 4.2 | Cn1c(N2CCO[C@@H](c3cccc4c3OCC4)C2)nc(-c2ccncn2)cc1=O [Compound B243] |
| 6.9 | Cn1c(N2CCOC(c3cc4cc(F)ccc4n3C)C2)nc(-c2ccncn2)cc1=O (stereo not drawn) [Compound B242] |
| 0.56 | Cn1c(N2CCOC(C(=O)c3ccccc3)C2)nc(-c2ccncn2)cc1=O (stereo not drawn) [Compound C501] |
| 4.6 | COc1cccc([C@H]2CN(c3nc(-c4ccncn4)cc(=O)n3C)CCO2)c1 [Compound B082] |
| 1.2 | COc1ccccc1C1CN(c2nc(-c3ccncn3)cc(=O)n2C)CCO1 (stereo not drawn) [Compound B084] |
| 27 | Cn1c(N2CCOC(c3ccc(F)cc3OCc3ccccc3)C2)nc(-c2ccncn2)cc1=O (stereo not drawn) [Compound B270] |
